Like-named read-outs stand apart in the source and are kept apart here.
Tests used:
S1P1 [1] = target: T1, S1P1 (Homo sapiens, UniProt P21453); assay: Receptor binding assay, [33P]sphingosine 1-phosphate competition (SPA), S1P1
Method: Cells were suspended in 50 mM TRIS, pH 7.4, 2 mM EDTA, 250 mM Sucrose (buffer A) and 1× Complete protease inhibitor cocktail (Roche), and disrupted at 4° C. by N2 decompression using a cell disruption bomb (Parr Instrument). […] The pellet was then suspended in 10 mM HEPES, pH 7.4, 1 mM EDTA, 250 mM Sucrose (Buffer B), and 1× Complete EDTA-free protease inhibitor cocktail and homogenized using a potter. Membranes were flash frozen in liquid N2 and stored at −80° C.
[33P]sphingosine 1-phosphate (3000 Ci/mmol; American Radiolabeled Chemicals, Inc.) was added to test compounds in 20% DMSO by competition. […] Triplicate samples were averaged and normalized as percentage of inhibition relative to total binding (only DMSO in well) and non-specific binding (1000-fold excess of unlabeled S1P). Binding data were analyzed using the GraphPad Prism program or Genedata software.
Target sequence in this assay (P21453 whole entry, species assumed): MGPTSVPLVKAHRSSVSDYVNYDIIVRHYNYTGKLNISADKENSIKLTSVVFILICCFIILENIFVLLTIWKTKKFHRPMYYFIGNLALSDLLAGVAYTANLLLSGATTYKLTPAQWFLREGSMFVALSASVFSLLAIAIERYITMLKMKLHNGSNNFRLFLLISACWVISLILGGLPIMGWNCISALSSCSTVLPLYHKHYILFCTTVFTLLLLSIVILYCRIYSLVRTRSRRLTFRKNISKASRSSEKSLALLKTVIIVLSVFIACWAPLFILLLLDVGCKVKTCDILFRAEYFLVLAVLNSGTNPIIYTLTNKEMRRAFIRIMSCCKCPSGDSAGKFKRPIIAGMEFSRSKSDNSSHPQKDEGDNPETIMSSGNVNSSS

S1P3 = S1P3 (Homo sapiens, UniProt Q99500); assay: Receptor binding assay, [33P]sphingosine 1-phosphate competition (SPA), S1P3
S1P3, sequence (Q99500 whole entry, species assumed): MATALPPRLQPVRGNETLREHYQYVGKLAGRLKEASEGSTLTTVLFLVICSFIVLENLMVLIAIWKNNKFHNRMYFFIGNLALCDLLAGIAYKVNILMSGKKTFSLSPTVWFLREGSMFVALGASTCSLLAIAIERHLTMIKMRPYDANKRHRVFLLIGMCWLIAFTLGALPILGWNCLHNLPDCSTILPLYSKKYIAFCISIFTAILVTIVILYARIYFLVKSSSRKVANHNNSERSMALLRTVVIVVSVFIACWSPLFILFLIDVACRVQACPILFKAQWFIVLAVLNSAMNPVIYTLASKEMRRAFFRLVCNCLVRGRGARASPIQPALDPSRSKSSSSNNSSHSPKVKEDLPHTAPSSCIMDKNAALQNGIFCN
Method: Membranes were prepared from CHO cells expressing S1P1 or S1P3 for use in ligand and […] binding studies. Cells were suspended in 50 mM TRIS, pH 7.4, 2 mM EDTA, 250 mM Sucrose (buffer A) and 1× Complete protease inhibitor cocktail (Roche), and disrupted at 4° C. by N2 decompression using a cell disruption bomb (Parr Instrument). Following centrifugation at 1000 RPM for 10 min at 4° C., the supernatant was diluted (2×) in buffer A and centrifuged again at 19000 RPM for 75 min at 4° C. The pellet was then suspended in 10 mM HEPES, pH 7.4, 1 mM EDTA, 250 mM Sucrose (Buffer B), and 1× Complete EDTA-free protease inhibitor cocktail and homogenized using a potter. Membranes were flash frozen in liquid N2 and stored at −80° C.
[33P]sphingosine 1-phosphate (3000 Ci/mmol; American Radiolabeled Chemicals, Inc.) was added to test compounds in 20% DMSO by competition. Membranes and WGA SPA beads (GE Healthcare) were added to give a final volume of 100 μl in 96-well plates or 50 μl in 384-well plates with assay concentrations of 30 pM or 15 pM [33P]sphingosine 1-phosphate (respectively for S1P1 or S1P3), 50 mM HEPES, pH 7.5, 5 mM MgCl2, 100 mM NaCl, 0.4% fatty acid-free BSA, 1-5 μg/well of proteins in 96-well plates vs 0.6-1 μg/well of proteins in 384-well plates and 100 μg/well of WGA SPA beads in 96-well plates vs 75 μg/well of WGA SPA beads in 384-well plates. Binding was performed for 60 min at RT on a shaker and bound radioactivity was measured on a PerkinElmer 1450 MicroBeta counter. Triplicate samples were averaged and normalized as percentage of inhibition relative to total binding (only DMSO in well) and non-specific binding (1000-fold excess of unlabeled S1P). Binding data were analyzed using the GraphPad Prism program or Genedata software.

S1P1 [2] = target: T1, S1P1; assay: S1P1 internalization assay in S1P1-U2OS cells (cell imaging); assay type: cell-based; details: U2OS cells expressing S1P1-EGFP, 1 hour
Method: Cellular functional assays: Internalization of Sphingosine-1-phosphate receptor 1 (S1P1) in a human Cell line (U2OS) in a 384-well format using a Cell Imaging analysis.
The S1P1 internalization assay was performed in 384 well plates (Corning® 384 black with clear bottom 3712) using S1P1-U2OS cells from Biolmage (C039A), a human epithelial cell line (Human Bone Osteosarcoma Epithelial Cells). These cells expressed the human S1P1 Receptor fused to the green fluorescent protein (EGFP). A standard CMV promoter (cytomegalovirus promoter) controls the expression of S1P1-EGFP and continuous expression was maintained by addition of geneticin to the culture medium.
S1P1Receptor desensitization induced the internalization of the membrane-localized S1P1-EGFP fusion protein to endosomes, which can be monitored by cell imaging analysis. The cells are plated in low serum medium (Dulbecco's Modified Eagle Medium (DMEM) with Glutamax-1 and high glucose, 1% Penicillin/Streptomycin, 1% Fetal Calf Serum (FCS), 0.5 mg/ml Geneticin) overnight.
The next day, S1P1-U2OS cells are incubated in 20 μl serum free medium (DMEM with Glutamax-1 and high glucose, 0.1% of fatty-acid free Bovin Serum Albumin (BSA), 10 mM, N′-2-Hydroxyethylpiperazine-N′-2 ethanesulphonic acid (HEPES) 1M) for 2 hours at 37° C./5% CO2. The cells are then treated with 4 μl compounds/agonists (6×/3% DMSO) for a total volume of 24 μl, and plates are incubated for 1 hour at 37° C./5% CO2.
S1P1-U2OS cells are fixed with 25 μl Paraformaldehyde 8% and stained with Hoechst 33345 dye (1:1000) for 20 minutes.
They were then washed 3 times with Phosphate Buffered Saline (PBS) and plates are sealed. The internalization of the receptor S1P1-EGFP is measured on Cellomics by calculating the “spot count per object” (“object” corresponds to nuclear and “spot” corresponds to S1P1-EGFP receptor). Internalization data were observed thanks to vHCS View and analyzed using Genedata® software.
Target sequence in this assay (P21453 whole entry): as the sequence (P21453 whole entry, species assumed) above

[3] = 384 well-plate, read-out: S1P1 binding Ki (M) (384 well-plate)
[4] = 384 well-plate, read-out: S1P3 binding Ki (M) (384 well-plate)
[5] = 96 well-plate, read-out: S1P1 binding Ki (M) (96 well-plate)
[6] = 96 well-plate, read-out: S1P3 binding Ki (M) (96 well-plate)

Ki (S1P1 [1]; [3]) [M] | Ki (S1P3; [4]) [M] | EC50 (S1P1 [2]) [nM] | Ki (S1P1 [1]; [5]) [M] | Ki (S1P3; [6]) [M] | Compound
1.45e-09 | 4.68e-07 | 17.7 | – | 4.12e-07 | Cc1cc(CN(C)CC(=O)O)ccc1-c1noc(-c2ccc(-c3ccccc3C)c(C(F)(F)F)c2)n1 [Example 103, 2-(methyl(3-methyl-4-(5-(2′-methyl-2-(trifluoromethyl)biphenyl-4-yl)-1,2,4-oxadiazol-3-yl)benzyl)amino)acetic acid]
3.16e-09 | 1.07e-06 | 17.3 | – | – | Cc1cc(-c2noc(-c3ccc(-c4ccccc4C)c(C(F)(F)F)c3)n2)ccc1CN(C)CC(=O)O [Example 154, 2-(methyl(2-methyl-4-(5-(2′-methyl-2-(trifluoromethyl)biphenyl-4-yl)-1,2,4-oxadiazol-3-yl)benzyl)amino)acetic acid]
6.22e-09 | – | 56.7 | – | – | CCc1ccccc1-c1ccc(-c2nc(-c3ccc(CN(C)CC(=O)O)c(F)c3)no2)cc1C(F)(F)F [Example 110, N-(4-{5-[2′-ethyl-2-(trifluoromethyl)biphenyl-4-yl]-1,2,4-oxadiazol-3-yl}-2-fluorobenzyl)-N-methylglycine]
3.24e-09 | – | 50.4 | – | – | Cc1ccccc1-c1ccc(-c2nc(-c3cccc(CN(CC(=O)O)C(C)C)c3)no2)cc1C(F)(F)F [Example 117, (Isopropyl-{3-[5-(2′-methyl-2-trifluoromethyl-biphenyl-4-yl)-[1,2,4]oxadiazol-3-yl]-benzyl}-amino)-acetic acid]
3.68e-09 | – | 45.9 | – | – | Cc1ccccc1-c1ccc(-c2nc(-c3ccc(Cl)c(CN(C)CC(=O)O)c3)no2)cc1C(F)(F)F [Example 111, N-(2-chloro-5-{5-[2′-methyl-2-(trifluoromethyl)biphenyl-4-yl]-1,2,4-oxadiazol-3-yl}benzyl)-N-methylglycine]
– | – | – | – | 1.31e-07 | Cc1ccccc1-c1ccc(-c2nc(-c3ccc(CN(C)CCC(=O)O)c(F)c3)no2)cc1C(F)(F)F [Example 71, N-(2-fluoro-4-{5-[2′-methyl-2-(trifluoromethyl)biphenyl-4-yl]-1,2,4-oxadiazol-3-yl}benzyl)-N-methyl-beta-alanine]

The remaining lines, values behind:

Compound | Ki (S1P1 [1]; [3]) [M] | Ki (S1P3; [4]) [M] | EC50 (S1P1 [2]) [nM] | Ki (S1P1 [1]; [5]) [M] | Ki (S1P3; [6]) [M]
CN(CC(=O)O)Cc1cc(F)cc(-c2noc(-c3ccc(-c4ccccc4C(F)(F)F)c(Cl)c3)n2)c1 [Example 136, N-(3-{5-[2-chloro-2′-(trifluoromethyl)biphenyl-4-yl]-1,2,4-oxadiazol-3-yl}-5-fluorobenzyl)-N-methylglycine] | 4.27e-09 | 2.32e-06 | 40.9 | – | –
CN(CC(=O)O)Cc1cccc(-c2noc(-c3ccc(-c4ccccc4)c(C(F)(F)F)c3)n2)c1 [Example 68] | – | – | 11.2 | 3.57e-10 | 1.09e-07
COCCN(CC(=O)O)Cc1ccc(-c2noc(-c3ccc(-c4ccccc4C)c(C(F)(F)F)c3)n2)cc1 [Example 138, N-(2-methoxyethyl)-N-(4-{5-[2′-methyl-2-(trifluoromethyl)biphenyl-4-yl]-1,2,4-oxadiazol-3-yl}benzyl)glycine] | 5.16e-09 | 4.79e-07 | 26.1 | – | –
COCc1cc(-c2nc(-c3ccc(CN(C)CC(=O)O)cc3)no2)ccc1-c1ccccc1C(F)(F)F [Example 97, N-(4-{5-[2-(methoxymethyl)-2′-(trifluoromethyl)biphenyl-4-yl]-1,2,4-oxadiazol-3-yl}benzyl)-N-methylglycine] | 2.08e-09 | 2.22e-06 | 12 | – | 1.57e-06
COCc1cc(-c2nc(-c3cccc(CN(C)CC(=O)O)c3)no2)ccc1-c1ccccc1C(F)(F)F [Example 49, N-(3-{5-[2-(methoxymethyl)-2′-(trifluoromethyl)biphenyl-4-yl]-1,2,4-oxadiazol-3-yl}benzyl)-N-methylglycine] | 2.35e-09 | 1.41e-06 | 11.3 | 8.7e-10 | 1.5e-06
CN(CC(=O)O)Cc1ccc(-c2noc(-c3ccc(-c4ccccc4C(F)(F)F)c(Cl)c3)n2)cc1 [Example 135] | 2.63e-09 | – | 26.1 | – | –
